Measurements reported in US5773421A, “Antifungal fusacandins” (Abbott Laboratories, priority 1995, dated 1998).
Values after ≈ are worked out from the molar mass of the structure shown. Read-outs that look alike come from different tables or passages of the source.

How the values were obtained:
[1] = MIC by broth dilution assay; format: cell-based; details: Table 6d, 2 ×10^5 organisms/mL; for MIC: 144 h, no sorbitol
Description: Minimal inhibitory concentrations (MICs) were determined by a broth dilution assay described by Frost, D., Brandt, K., Cugier, D., and Goldman, R. in J. Antibiotics 48: 306-310 (1995) which is incorporated herein by reference. The final concentration of cells was 2 ×10^5 organisms/mL.

Candida albicans CCH 442 = experiment: MIC by agar dilution method; format: cell-based; details: CCH442, agar dilution
Description: (§1) Minimal inhibitory concentrations (MICs) were determined by an agar dilution method. The test compounds were serially diluted in MeOH and 0.2 mL portions were mixed with 20 mL of molten, cooled Sabouraud dextrose agar (Difco). Yeast cell inoculum was prepared by growing cultures on Sabouraud dextrose agar for 18 hours at 32° C. and suspending the cells in phosphate buffered saline. Filamentous fungi were grown under the same conditions for 4 days to obtain spores. The inoculum level for all cultures was adjusted to 10^4 cells using a Petroff-Hauser cell counter. The glutarimide antifungal compounds cycloheximide or amphotericin B were used as a control. Inoculated test plates were incubated at 32° C. and examined after 20 hours.

[2] = tested on: Cryptococcus albidus ATCC 341; experiment: MIC by agar dilution method; format: cell-based; details: Naganishia albida, ATCC341, Table 6b, 32° C., 20 hours
Description: as §1

[3] = tested on: Candida tropicalis NRRL-Y-1; experiment: MIC by agar dilution method; format: cell-based; details: NRRLY1, agar dilution, 32° C., 20 hours, read-out: MIC
Description: as §1

Candida kefyr ATTC 288 = experiment: MIC by agar dilution method; format: cell-based; details: Kluyveromyces marxianus
Description: as §1

[4] = tested on: Aspergillus niger ATCC 164; experiment: MIC by agar dilution method; format: cell-based; details: ATCC164, Aspergillus niger ATCC 164, agar dilution, 32° C., 20 hours, read-out: MIC
Description: as §1

[5] = tested on: Candida albicans ATCC 623; experiment: MIC by agar dilution method; format: cell-based; details: ATCC623, Candida albicans ATCC 623, agar dilution, 32° C., 20 hours, read-out: MIC
Description: as §1

[6] = tested on: Candida albicans ATCC 102; experiment: MIC by agar dilution method; format: cell-based; details: ATCC102, 20 h
Description: as §1

[7] = tested on: Saccharomyces cereviseae GS1-36; experiment: MIC by agar dilution method; format: cell-based; details: GS136, Saccharomyces cereviseae GS1-36, agar dilution, 32° C., 20 hours, read-out: MIC
Description: as §1

[8] = tested on: Torulopsis glabrata ATCC 155; experiment: MIC by agar dilution method; format: cell-based; details: Nakaseomyces glabratus, ATCC155, Torulopsis glabrata ATCC 155, agar dilution, 32° C., 20 hours, read-out: MIC
Description: as §1

[9] = tested on: Candida albicans ATCC 382; experiment: MIC by agar dilution method; format: cell-based; details: ATCC382, 20 h
Description: as §1

Candida albicans 579a = experiment: MIC by agar dilution method; format: cell-based
Description: as §1

[10] = tested on: Nocardia asteroides ATTC 9970; experiment: MIC by agar dilution method; format: cell-based; details: ATTC9970; Table 6a; Nocardia asteroides ATTC 9970; agar dilution, 32° C., 20 hours; read-out: MIC
[11] = tested on: Candida albicans ATCC 997; experiment: MIC by agar dilution method; format: cell-based; details: ATCC997; Table 6a; Candida albicans ATCC 997; agar dilution, 32° C., 20 hours; read-out: MIC
Description: as §1

[12] = tested on: Candida albicans ATCC 38247; experiment: MIC by agar dilution method; format: cell-based; details: ATCC38247; Table 6c; IV Candida albicans ATCC 38247; agar dilution; read-out: MIC IV
Description: as §1

[13] = tested on: Candida albicans ATCC 10231; experiment: MIC by agar dilution method; format: cell-based; details: ATCC10231; Table 6c; I Candida albicans ATCC 10231; agar dilution; read-out: MIC I
Description: as §1

[14] = tested on: Candida albicans ATCC 62376; experiment: MIC by agar dilution method; format: cell-based; details: ATCC62376; Table 6c; V Candida albicans ATCC 62376; agar dilution; read-out: MIC V
Description: as §1

glucan synthase = target: T1, glucan synthase (Candida albicans, UniProt O13428); experiment: Microtiter screen for inhibitors of (1,3)-β-glucan formation in cell free extracts; format: biochemical; details: C. albicans microsomes, [14C]UDP-Glc, water-insoluble β-glucan product on filter
T1 construct: Microsomes isolated from mid-log phase grown yeast; endogenous in cells; host or cells: Candida albicans, mid-log phase yeast cells, microsomes
Description: The fungal cell wall serves as a protective barrier and is essential for viability in a hypotonic environment. (1,3)-β-Glucan is a component of the Candida albicans cell wall, and the enzyme that biosynthesizes this polymer, glucan synthase, is not present in higher eukaryotes. (Glucan synthase is an integral plasma membrane protein that catalyzes polymerization of uridine diphosphate-glucose (UDP-Glc) into β-glucan.) Accordingly, glucan synthase represents an ideal target for the development of antifungal agents.
A microtiter screen was established to detect inhibitors of (1 ,3)-β-glucan formation in C. albicans cell free extracts. Microsomes isolated from mid-log phase grown yeast were incubated with [^14 C]UDP-Glc, effectors and test compound (fusacandin A, Example 4). The formation of the water-insoluble β-glucan product was measured on a filter after removing the substrate with water washes.

[15] = tested on: Streptococcus pyrogenes EES61; experiment: MIC by agar dilution method; format: cell-based; details: Table 6a; Streptococcus pyrogenes EES61; agar dilution, 32° C., 20 hours; read-out: MIC
[16] = tested on: Staphylococcus aureus ATTC 6538p; experiment: MIC by agar dilution method; format: cell-based; details: ATTC6538P; Table 6a; Staphylococcus aureus ATTC 6538p; agar dilution, 32° C., 20 hours; read-out: MIC
[17] = Minimum inhibitory concentration (MIC) stated with the glucan synthase screen; format: cell-based; details: organism not given
[18] = tested on: Streptococcus bovis A-5169; experiment: MIC by agar dilution method; format: cell-based; details: Streptococcus equinus, A5169; Table 6a; Streptococcus bovis A-5169; agar dilution, 32° C., 20 hours; read-out: MIC
(1,3)-β-Glucan Synthase = target: T2, (1,3)-β-Glucan Synthase (Candida albicans, UniProt O13428); experiment: In vitro inhibition of (1,3)-β-glucan synthase activity, microsomal enzyme preparation; format: biochemical; details: C. albicans CCH 442 microsomal enzyme
T2 construct: microsomal enzyme preparation C. albicans CCH 442; endogenous in cells; host or cells: Candida albicans CCH 442, microsomes
Description: The assay was conducted in a final volume of 100 μL of 2.0 mM UDP-[^14 C]-Glc (0.625 mCi/mmol), 1 mM EDTA, 8% (v/v) glycerol, 20 μM GTPgS, 0.5% Brij-35(v/v) or 0.8% BSA, 80 mM Tris/HCl, pH 7.75, and microsomal enzyme preparation C. albicans CCH 442 (100 μg of protein). A detailed description of this assay is described by Frost, D., Brandt, K. Capobioanco, and Goldman, R., Microbiology 140: 2239-2246 (1994) which is incorporated herein by reference.

[19] = Table 6b, Candida albicans CCH 442, 32° C., 20 hours, read-out: MIC
[20] = Table 6b, Candida tropicalis NRRL Y-1
[21] = Table 6c, 3rd value column (head printed II), III Candida albicans CCH 442, read-out: MIC II
[22] = Table 6c, II Candida albicans 579a, agar dilution, read-out: MIC II

T2 sequence (O13428 1-1897): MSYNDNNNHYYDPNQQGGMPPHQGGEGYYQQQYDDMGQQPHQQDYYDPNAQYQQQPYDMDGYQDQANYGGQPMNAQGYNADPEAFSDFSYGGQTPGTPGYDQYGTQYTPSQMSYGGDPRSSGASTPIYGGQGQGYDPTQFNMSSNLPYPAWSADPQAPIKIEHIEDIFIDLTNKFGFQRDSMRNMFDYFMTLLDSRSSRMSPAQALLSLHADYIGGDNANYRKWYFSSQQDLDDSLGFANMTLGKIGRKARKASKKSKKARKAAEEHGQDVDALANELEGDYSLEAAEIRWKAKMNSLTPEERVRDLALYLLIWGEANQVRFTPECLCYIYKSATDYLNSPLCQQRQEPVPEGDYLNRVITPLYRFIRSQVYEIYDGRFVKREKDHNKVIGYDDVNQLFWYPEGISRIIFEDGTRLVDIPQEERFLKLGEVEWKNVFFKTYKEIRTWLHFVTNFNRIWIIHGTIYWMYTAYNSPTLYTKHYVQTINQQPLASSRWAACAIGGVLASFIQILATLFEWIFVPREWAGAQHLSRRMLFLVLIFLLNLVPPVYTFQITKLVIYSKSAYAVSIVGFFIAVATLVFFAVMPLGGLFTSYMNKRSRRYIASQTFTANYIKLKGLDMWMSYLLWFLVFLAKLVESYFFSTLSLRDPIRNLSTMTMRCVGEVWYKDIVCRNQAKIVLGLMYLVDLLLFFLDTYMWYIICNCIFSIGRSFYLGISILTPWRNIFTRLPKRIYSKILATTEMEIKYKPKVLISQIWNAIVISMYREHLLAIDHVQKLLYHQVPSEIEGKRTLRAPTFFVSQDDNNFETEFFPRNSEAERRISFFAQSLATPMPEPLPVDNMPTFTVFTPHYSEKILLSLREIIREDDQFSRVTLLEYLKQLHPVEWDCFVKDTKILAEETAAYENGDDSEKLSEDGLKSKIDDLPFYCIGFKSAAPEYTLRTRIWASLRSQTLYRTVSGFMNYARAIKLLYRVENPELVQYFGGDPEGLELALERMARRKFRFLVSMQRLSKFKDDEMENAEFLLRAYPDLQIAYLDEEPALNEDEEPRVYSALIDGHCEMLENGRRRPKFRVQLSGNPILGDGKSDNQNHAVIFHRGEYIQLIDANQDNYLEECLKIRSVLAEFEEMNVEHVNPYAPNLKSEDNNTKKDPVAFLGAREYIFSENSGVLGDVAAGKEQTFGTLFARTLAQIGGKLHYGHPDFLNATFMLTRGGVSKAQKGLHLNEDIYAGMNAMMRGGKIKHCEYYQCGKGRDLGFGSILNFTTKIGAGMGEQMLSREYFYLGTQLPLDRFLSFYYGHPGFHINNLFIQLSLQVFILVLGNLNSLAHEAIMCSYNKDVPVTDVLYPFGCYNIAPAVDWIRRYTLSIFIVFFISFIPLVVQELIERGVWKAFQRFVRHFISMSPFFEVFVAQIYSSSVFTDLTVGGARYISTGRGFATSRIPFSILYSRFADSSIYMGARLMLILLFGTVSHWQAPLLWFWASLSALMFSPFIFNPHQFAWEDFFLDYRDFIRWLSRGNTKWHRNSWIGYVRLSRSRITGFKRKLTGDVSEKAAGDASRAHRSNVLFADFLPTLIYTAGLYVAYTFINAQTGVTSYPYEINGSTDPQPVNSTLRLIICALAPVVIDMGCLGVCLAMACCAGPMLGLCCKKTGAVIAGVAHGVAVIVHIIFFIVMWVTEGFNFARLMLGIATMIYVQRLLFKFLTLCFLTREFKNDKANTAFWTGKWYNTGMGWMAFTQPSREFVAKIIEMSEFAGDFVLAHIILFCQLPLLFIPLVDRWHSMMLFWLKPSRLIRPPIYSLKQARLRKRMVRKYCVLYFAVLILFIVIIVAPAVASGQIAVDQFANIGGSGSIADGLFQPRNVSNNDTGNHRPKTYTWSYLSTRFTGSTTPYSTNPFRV
T1 sequence (O13428 1-1897): as above

| Structure (SMILES) | MIC [1] | MIC (Candida albicans CCH 442; [19]) | MIC [2] | MIC [3, 20] | MIC (Candida kefyr ATTC 288; ATCC288, 20 h) | MIC ([4]; Table 6b) | MIC ([5]; Table 6b) | MIC [6] | MIC ([7]; Table 6b) | MIC ([8]; Table 6b) | MIC [9] | MIC (Candida albicans 579a; Candida albicans, 579A, 20 h) | MIC (Candida albicans CCH 442; [21]) | MIC [12] | MIC [13] | MIC [14] | MIC (Candida albicans 579a; [22]) | other results |
| --- | --- | --- | --- | --- | --- | --- | --- | --- | --- | --- | --- | --- | --- | --- | --- | --- | --- | --- |
| C[C@@H]1[C@H](O)[C@@H](C)/C=C/C=C/C=C/C=C/C=C/C=C/C=C/[C@H](O[C@@H]2O[C@H](C)[C@@H](O)[C@H](N)[C@@H]2O)C[C@@H]2O[C@](O)(C[C@@H](O)C[C@@H](O)[C@H](O)CC[C@@H](O)C[C@@H](O)CC(=O)O[C@H]1C)C[C@H](O)[C@H]2C(=O)O [Amphotericin B, amphotericin B, reference compound] | 0.24 µg/mL (≈ 0.26 µM) | 1.56 µg/mL (≈ 1.69 µM) | 3.12 µg/mL (≈ 3.38 µM) | 1.56 µg/mL (≈ 1.69 µM) | 1.56 µg/mL (≈ 1.69 µM) | 1.56 µg/mL (≈ 1.69 µM) | 1.56 µg/mL (≈ 1.69 µM) | 1.56 µg/mL (≈ 1.69 µM) | 1.56 µg/mL (≈ 1.69 µM) | 1.56 µg/mL (≈ 1.69 µM) | 50 µg/mL (≈ 54.1 µM) | 1.56 µg/mL (≈ 1.69 µM) |  |  |  |  |  |  |
| CCCCCC=CC=CC(=O)OCC1OC(OC2C(CO)OC(c3c(O)cc(O)cc3CO)C(O)C2OC(=O)C=CC=CCC(O)C=CC=CCCCCC)C(OC2OC(CO)C(O)C(O)C2O)C(O)C1O (stereo not shown) [Example 4, fusacandin A] | 0.48 µg/mL (≈ 0.469 µM) |  |  |  |  |  |  |  |  |  |  |  | 0.78 µg/mL (≈ 0.762 µM) | 0.78 µg/mL (≈ 0.762 µM) | 1.56 µg/mL (≈ 1.52 µM) | 1.56 µg/mL (≈ 1.52 µM) | 0.78 µg/mL (≈ 0.762 µM) | MIC [10]: 12.5 µg/mL (≈ 12.2 µM); MIC (Candida albicans CCH 442; Table 6a, Candida albicans CCH 442, 32° C., 20 hours, read-out: MIC): 6.26 µg/mL (≈ 6.12 µM); MIC ([3]; Table 6a, Candida tropicalis NRRL-Y-1): 6.25 µg/mL (≈ 6.11 µM); MIC (Candida kefyr ATTC 288; ATTC288, Table 6a, Candida kefyr ATTC 288, agar dilution, 32° C., 20 hours, read-out: MIC): 6.25 µg/mL (≈ 6.11 µM); MIC ([4]; Table 6a): 6.25 µg/mL (≈ 6.11 µM); MIC [11]: 12.5 µg/mL (≈ 12.2 µM); MIC ([5]; Table 6a): 6.25 µg/mL (≈ 6.11 µM); MIC ([7]; Table 6a): 3.12 µg/mL (≈ 3.05 µM); MIC ([8]; Table 6a): 3.12 µg/mL (≈ 3.05 µM); IC50 (glucan synthase; read-out: IC50 (converted)): 20 µM; MIC [15]: 6.25 µg/mL (≈ 6.11 µM); MIC [16]: 50 µg/mL (≈ 48.9 µM); MIC [17]: 0.5 µg/mL (≈ 0.489 µM); MIC [18]: 12.5 µg/mL (≈ 12.2 µM); IC50 ((1,3)-β-Glucan Synthase; 0.5% Brij-35, read-out: IC50 With Brij-35 (converted)): 6.84 µM; IC50 ((1,3)-β-Glucan Synthase; 0.8% BSA, read-out: IC50 With BSA (converted)): 111 µM |
| CCCCC/C=C/C=C/C(O)C/C=C/C=C/C(=O)O[C@@H]1[C@@H](O)[C@H](c2c(O)cc(O)cc2CO)O[C@H](CO)[C@H]1O[C@@H]1O[C@H](CO)[C@H](O)[C@H](O)[C@H]1O[C@@H]1O[C@H](CO)[C@H](O)[C@H](O)[C@H]1O (stereo partly shown) [Example 7, fusacandin B] |  | 50 µg/mL (≈ 57.3 µM) | > 100 µg/mL | 50 µg/mL (≈ 57.3 µM) | 100 µg/mL (≈ 115 µM) | > 100 µg/mL | 100 µg/mL (≈ 115 µM) | 50 µg/mL (≈ 57.3 µM) | 50 µg/mL (≈ 57.3 µM) | 100 µg/mL (≈ 115 µM) | > 100 µg/mL | 50 µg/mL (≈ 57.3 µM) | 25 µg/mL (≈ 28.6 µM) | > 100 µg/mL | 50 µg/mL (≈ 57.3 µM) | 50 µg/mL (≈ 57.3 µM) | 25 µg/mL (≈ 28.6 µM) |  |
| CCC(O)/C=C/C=C/C=C/C(=O)OC[C@H]1O[C@@H](O[C@H]2[C@H](OC(=O)/C=C/C=C/CC(O)/C(C)=C/C=C/CCC(C)CC)[C@@H](O)[C@@]3(OCc4cc(O)cc(O)c43)O[C@@H]2CO)[C@H](O)[C@@H](O)[C@H]1O (stereo partly shown) [Papulacandin B, papulacandin B, reference compound] |  |  |  |  |  |  |  |  |  |  |  |  |  |  |  |  |  | MIC No sorbitol [1]: 0.48 µg/mL (≈ 0.533 µM); IC50 (glucan synthase): 3.6 µg/mL; minimum inhibitory concentration (MIC) [17]: 1.0 µg/mL (≈ 1.11 µM); IC50 With Brij-35 ((1,3)-β-Glucan Synthase; 0.5% Brij-35): 0.8 µg/mL (≈ 0.888 µM); IC50 With BSA ((1,3)-β-Glucan Synthase; 0.8% BSA): 16.3 µg/mL (≈ 18.1 µM) |
